Results as given in patent US8846929B2, “Substituted-quinoxaline-type piperidine compounds and the uses thereof” (priority 2007, dated 2014).

What was measured:
[1] = test system: FCA-induced inflammation of the rat hind paw; details: in vivo
delta opioid receptor = delta opioid receptor (Homo sapiens (Human), UniProt P41143); assay: In vitro delta-opioid receptor binding assay ([3H]-Naltrindole displacement)
[2] = target: human opioid receptor-like (ORL-1) (Homo sapiens (Human), UniProt P41146); assay: In vitro ORL-1 receptor [35S]GTPγS functional assay; assay type: biochemical
Chain of human opioid receptor-like (ORL-1) (P41146 whole entry): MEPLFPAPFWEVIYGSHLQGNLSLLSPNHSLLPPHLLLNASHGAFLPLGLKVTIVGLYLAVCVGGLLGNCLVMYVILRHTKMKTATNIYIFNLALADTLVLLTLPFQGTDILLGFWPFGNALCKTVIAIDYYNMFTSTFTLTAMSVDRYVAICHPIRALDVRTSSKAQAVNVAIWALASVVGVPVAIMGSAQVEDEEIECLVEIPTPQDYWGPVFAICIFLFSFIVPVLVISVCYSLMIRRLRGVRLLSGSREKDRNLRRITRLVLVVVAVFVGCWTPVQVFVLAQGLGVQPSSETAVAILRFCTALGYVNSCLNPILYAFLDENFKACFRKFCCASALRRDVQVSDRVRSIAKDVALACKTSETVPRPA

Chain of delta opioid receptor (P41143 whole entry): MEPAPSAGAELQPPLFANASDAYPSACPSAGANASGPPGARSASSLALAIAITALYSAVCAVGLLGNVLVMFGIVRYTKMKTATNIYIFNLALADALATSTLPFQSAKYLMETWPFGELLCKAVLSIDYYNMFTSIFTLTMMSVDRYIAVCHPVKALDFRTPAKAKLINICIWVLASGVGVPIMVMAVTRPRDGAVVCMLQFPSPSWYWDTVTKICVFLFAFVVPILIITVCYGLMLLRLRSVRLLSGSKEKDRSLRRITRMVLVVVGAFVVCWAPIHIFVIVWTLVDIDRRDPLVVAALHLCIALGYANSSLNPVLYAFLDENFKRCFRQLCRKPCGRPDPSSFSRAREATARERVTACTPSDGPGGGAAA

O=C(O)c1nc2ccccc2n([C@H]2C[C@H]3CCC[C@@H](C2)N3C2CCCCCCC2)c1=O [compound 241, 4-((endo)-9-cyclooctyl-9-azabicyclo[3.3.1]nonan-3-yl)-3-oxo-3,4-dihydroquinoxaline-2-carboxylic acid]
maximum % reversal of thermal hyperalgesia [1]: about 80%

O=C(O)c1nc2ccccc2n(C2CC3CCCC(C2)N3C23CC4CC(CC2C4)C3)c1=O (centres unmarked) [compound 263, 4-(9-(hexahydro-2,5-methano-pentalen-3a-yl)-9-aza-bicyclo[3.3.1]non-3-yl)-3-oxo-3,4-dihydro-quinoxaline-2-carboxylic acid]
Ki (delta opioid receptor): 526 µM
EC50 [2]: 0.298 ± 0.026 µM

O=C(O)c1ccc(CNC(=O)c2nc3ccccc3n([C@H]3C[C@H]4CC[C@@H](C3)N4C3CCCCCCC3)c2=O)nc1 [compound 318, 6-((4-((endo)-8-cyclooctyl-8-azabicyclo[3.2.1]octan-3-yl)-3-oxo-3 ,4-dihydroquinoxaline-2-carboxamido)methyl)nicotinic acid]
EC50 [2]: 0.236 ± 0.013 µM

O=C(O)c1nc2ccccc2n([C@H]2C[C@H]3CC[C@@H](C2)N3C23CC4CC(CC2C4)C3)c1=O [compound 320]
EC50 [2]: 0.104 ± 0.0078 µM

O=C(O)CN(CCNC(=O)c1nc2ccccc2n([C@H]2C[C@H]3CC[C@@H](C2)N3C23CC4CC(CC(C4)C2)C3)c1=O)CC(=O)O [compound 325]
EC50 [2]: 0.109 ± 0.014 µM

CC1(N2[C@@H]3CCC[C@H]2C[C@@H](n2c(=O)c(C(=O)O)nc4ccccc42)C3)CCCCCCC1 [compound 335]
EC50 [2]: 0.174 ± 0.01 µM

O=C(O)CN1CCN(c2nc3ccccc3n([C@H]3C[C@H]4CC[C@@H](C3)N4C3CCCCCCC3)c2=O)CC1 [compound 337, 2-(4-(4-((endo)-8-cyclooctyl-8-azabicyclo[3.2.1]octan-3-yl)-3-oxo-3,4-dihydroquinoxalin-2-yl)piperazin-1-yl)acetic acid]
EC50 [2]: 0.438 ± 0.015 µM

O=C(O)c1nc2ccccc2n([C@H]2C[C@H]3CCCC[C@@H](C2)N3C2/C=C\CCCCC2)c1=O (some centres unmarked) [compound 359]
EC50 [2]: 0.134 ± 0.0027 µM

O=C(O)c1nc2ccccc2n([C@H]2C[C@H]3CCC[C@@H](C2)N3C2C3CC4CC(C3)CC2C4)c1=O (some centres unmarked) [compound 363]
EC50 [2]: 4.09 ± 1.16 µM

O=C(O)c1nc2ccccc2n([C@H]2C[C@H]3CCC[C@@H](C2)N3CCC2CCCCC2)c1=O [compound 372]
EC50 [2]: 0.214 ± 0.057 µM
